Patent publication US7718613B2, “Armed peptides” (priority 2001, dated 2010)
The star is where a group is joined. Myristoyl = CCCCCCCCCCCCCC(=O)*

Columns and labels:
[1] = Detection of VTB epitope and VTB subunit by pH arming liposomal assay
[2] = Cloaking of peptide activity with pH and DNA binding, calcein liposome lysis
Procedure: Calcein liposomes containing (5 μM lipid) were added to 2 ml phosphate buffered saline containing the peptide (0.4 μM) and the fluorescence recorded. This was carried out at pH values of 6.6 and 7.4. The fluorescence intensity indicative of leakage after five minutes was expressed as a % of lysis obtained with 10 μl of 10% Triton-X100. the latter taken to represent 100% lysis. The experiment was repeated whereby the peptide was pre-condensed with calf thymus DNA (Sigma) at charge ratio to give minimum lysis at pH 7.4. […] Thus the DNA condensate of the peptide would require both the de-condensation and slightly acidic conditions to cause lysis. Cloaking of peptides with DNA binding and pH has obvious advantages when delivering genes via the endosome route where low pH is encountered. A combination of highly anionic region (towards the N terminal end of peptide 13 table 1 residues LEAALAEALEAL) and highly cationic region (the c terminal end of peptide 13 table 1, residues RRRRQQ,) within the same polypeptide sequence is critical to this fuction.
To assess condensation of DNA to peptide and its effect on cytolytic activity, assays were performed at several different pH values and at different peptide to DNA ratios. […] The peptide or complexes have a property of retaining high basic character on one end which is essential for DNA binding while retaining highly acidic character on the other half of the molecule which is critical for pH switching.

[3] = Liposome-peptide integral complex: pH-triggered calcein release and stability; settings: after Sepharose CL-6B column, FIG. 8A
Description: A fatty acid incorporated on the N-terminal of peptide anchors the sequence with liposomes to form integral complex which can then be used as single stable reagent that can be triggered to release the contents-of the liposomoes when the pH is ideal (i.e physiological 7.4) or acidic (e.g 6.2). In the first instance we prepared the liposome-peptide complex at a predetermined ratio of lipid-to peptide (30:1) in pH 8 buffer using peptide 10. […] The complex between liposomes and peptide was formed by adding peptide to […] of 10 mM NaP containing 140 mM NaCl, 1 mM EDTA, 5 mM Hepes pH 8 buffer, containing 100 μl of calcein encapsulating liposomes. The mixture was incubated for 20 mins to form the complex prior to use. In order to ascertain that the lysis is occurring due to the formation of complex and not as the action of the peptide per se it was essential to purify the liposome-peptide complex. The peptide to lipid ratio in this complex is 1:30. The complex was applied to a Sepharose CL-6B column. Fractions corresponding to liposomes were collected as clearly visible to the eye. Aliquots of these fractions were then tested for lytic activity at acidic and physiological pH values. The key aim was to establish that the peptide is liposome associated and would thus be eluted with liposome fraction in the void volume. We used 100 μl complex (a column purified fraction) and followed the release of Calcein at two different pH values.
FIG. 8A. […] Upper curve pH 5.8. Lower curve pH 7.4.
2 ml buffer (10 mM Na phosphate, 140 mM NaCl, 1 mM EDTA, 5 mM HEPES)+50 μl purified complex. Lipsomes used were 50 nm extruded. Curves top to bottom are pH 6.2, 6.4, 6.7, 7.0, 7.4
Complex 20 μl liposomes+60 μl pH 8 buffer+20 μl peptide (0.1 mg/ml) prepared and used within 2 minutes. 10 μl was added to each of the cuvettes containing 2 ml buffers. Top curve pH 6.2 (triton was added towards the end indicated by sharp dip in fluorescence to check full lysis), the lower curve is at pH 7.4. Samples measured simultaneously.
5 μL of complex in 2 ml of buffer tested 20 minutes after preparation. Upper curve pH 6.2, Lower curve pH 7.4.
5 μL of complex in 2 ml of buffer tested 5 hrs after preparation. Upper curve pH 6.2 and lower curve pH 7.4.
5 μL of complex in 2 ml of buffer tested 24 hrs after preparation curve pH 6.2, Lower curve pH 7.4.

[4] = Activation of phosphorylated peptide by alkaline phosphatase, calcein liposome lysis
Procedure: Alkaline phosphatase (bovine intestinal mucosa) obtained from Sigma was used for dephosphorylation of peptide at the serine phosphate. A 10 μl of Peptide solution (0.01 mg/ml) was added to 2 ml of 10 mM HEPES buffer at pH 6.8 and 10 units of alkaline phosphatase added. After allowing 10-minute incubation for dephosphorylation calcein liposomes (5 μM lipid) were added and fluorescence intensity recorded using wavelengths of 490 nm for excitation and 520 nm for emission. Control experiment was conducted in the absence of alkaline phosphates. […] Thus the enzyme treatment yielded the dephosphorylated peptide resulting in activation of the peptide under mildly acidic conditions 3 μl of 0.1 mg/ml of peptide 12 (table 1) was incubated for 10 minutes with alkaline phosphatase in 20 μl 10 mM Tris-HCL pH 8 buffer. This was then added (see arrow on FIG. 14B) to 2 ml PBS pH 6.6 buffer containing 3 μl of calcein liposomes (3 mg/ml lipid concentration). Fluorescence was recorded as a function of time with excitation and emission wavelengths of 490 nm and 520 nm respectively. A similar experiment was carried out in the absence of alkaline phosphatase.

Myr-EAALAEALAEALAEGK(ELFTNR)PALISWRRRLQQ-amide [peptide 6]
detection of VTB subunit by release of calcein ([1]; VTB subunit competing for anti-epitope antibody, pH 6.8, FIG. 7): could also be detected
pH sensitivity of cytolytic activity ([1]; analogous to parent Peptide 2): pH sensitive
detection of VTB epitope by release of calcein ([1]; free epitope (ELFTNR) competing for 6 μg anti-epitope antibody, FIG. 6): could be detected

Myr-LEAALAEALEALAAGKPALISWIRRRRQQ-Amide (Myristoyl-LEAALAEALEALAAGKPALISWIRRRRQQ-NH2; SMILES CCCCCCCCCCCCCC(=O)N[C@@H](CC(C)C)C(=O)N[C@@H](CCC(=O)O)C(=O)N[C@@H](C)C(=O)N[C@@H](C)C(=O)N[C@@H](CC(C)C)C(=O)N[C@@H](C)C(=O)N[C@@H](CCC(=O)O)C(=O)N[C@@H](C)C(=O)N[C@@H](CC(C)C)C(=O)N[C@@H](CCC(=O)O)C(=O)N[C@@H](C)C(=O)N[C@@H](CC(C)C)C(=O)N[C@@H](C)C(=O)N[C@@H](C)C(=O)NCC(=O)N[C@@H](CCCCN)C(=O)N1CCC[C@H]1C(=O)N[C@@H](C)C(=O)N[C@@H](CC(C)C)C(=O)N[C@H](C(=O)N[C@@H](CO)C(=O)N[C@@H](Cc1c[nH]c2ccccc12)C(=O)N[C@H](C(=O)N[C@@H](CCCNC(=N)N)C(=O)N[C@@H](CCCNC(=N)N)C(=O)N[C@@H](CCCNC(=N)N)C(=O)N[C@@H](CCCNC(=N)N)C(=O)N[C@@H](CCC(N)=O)C(=O)N[C@@H](CCC(N)=O)C(N)=O)[C@@H](C)CC)[C@@H](C)CC) [Peptide 13]
lysis of calcein liposomes when no DNA is present ([2]; 0.4 μM peptide, pH 6.6 vs 7.4, five minutes, FIG. 15): activated by acidic pH
cytolytic activity with DNA at acidic pH ([2]; DNA substantially dissociated): activity is regained
effect of DNA binding on peptide activity ([2]; pre-condensed with calf thymus DNA, FIG. 15): substantial inactivation
cytolytic activity bound to DNA at physiological pH ([2]; several peptide to DNA ratios): inactive

Myr-WBALAEALAEALAEHLAKALAEALEALAA-Amide [peptide 10]
Calcein release from purified liposome-peptide complex at pH 5.8 ([3]; peptide to lipid 1:30, pH 5.8): acid triggered release
Calcein release from purified liposome-peptide complex at pH 7.4 ([3]; peptide to lipid 1:30, pH 7.4): little or no release

Myr-WEA ALA EAL AEA S(Phospho)AE HLA RAL AEA LEA LAA-Amide [peptide 12]
dye release in the presence of alkaline phosphatase, pH 6.8 ([4]; 10 units alkaline phosphatase, 10 mM HEPES pH 6.8, FIG. 14A): substantial dye release
dye release, enzyme treated peptide, pH 6.6 ([4]; alkaline phosphatase pre-incubation pH 8, then PBS pH 6.6, FIG. 14B curve 1): release of the dye
dye release, non-treated peptide, pH 6.6 ([4]; no alkaline phosphatase, PBS pH 6.6, FIG. 14B curve 2): no or little rate increase
dye release in the absence of enzyme, pH 6.8 ([4]; no alkaline phosphatase, pH 6.8, FIG. 14A): low release
